According to PMC10744032, “Regioselective and Stereoselective Synthesis of Parthenolide Analogs by Acyl Nitroso-Ene Reaction and Their Biological Evaluation against Mycobacterium tuberculosis” (International Journal of Molecular Sciences, 2023):
Converted amounts (≈) assume the structure as drawn. Where two headings read alike, the source gives them in different places.

Columns and labels:
M. tuberculosis H37Rv = assay: microbe, parasite or virus in culture; type: cell-based, Mycobacterium tuberculosis; conditions: 7 days incubation, resazurin readout, tested 300 to 2.3 µM, read-out: MIC90 M. tuberculosis (REMA)
[1] = system: M. tuberculosis H37Rv expressing GFP (H37Rv::pJKD6); assay: microbe, parasite or virus in culture; type: cell-based, Mycobacterium tuberculosis; conditions: for MIC: Mycobacterium tuberculosis, H37RV, 168 h, read-out: MIC98 M. tuberculosis (GFP)
[2] = system: Staphylococcus aureus (SH1000); assay: microbe, parasite or virus in culture; type: cell-based; conditions: 5 h incubation, resazurin readout, tested 300 to 2.3 µM, read-out: MIC90 S. aureus (REMA)
[3] = Cytotoxicity by live imaging (Hoechst 33342 / propidium iodide); type: cell-based; conditions: mouse
Method: (§1) The cytotoxicity of the compounds to BALB/3T3 cells was determined using live imaging following both Hoechst 33342 and propidium iodide staining. Briefly, BALB/3T3 cells were seeded in a 384-well plate and 24 h later, the compounds were added (0, 12.5, 25, 50, and 100 µM) to the culture medium, as well as Hoechst 33342 and propidium iodide (PI). Then, 24 h and 48 h after the compounds were added, live imaging was performed using an In Cell Analyzer 6000 (STP GE Healthcare, Glascow, UK). The cytotoxicity was defined based on the ratio of the population of dead or dying cells (propidium iodide staining) to the total cell population (Hoechst staining), as determined using Columbus software 2.9.1 (PerkinElmer Informatics, WA, USA). The compounds were tested in triplicate. Carfilzomib (500, 250, 140, and 60 nM) was used as the positive control in this assay.

[4] = Kinetic solubility in PBS by LC-MS/MS; type: physicochemical
Method: The kinetic solubility was determined using LC–MS/MS analysis in PBS at pH 7.4. Briefly, a 10 mM 100% DMSO solution of the compound was diluted 50-fold either in PBS at pH 7.4 (in triplicate) or in DMSO in polypropylene tubes (n = 3 for PBS and n = 6 for DMSO). The tubes were gently shaken for 24 h at 21 °C. Then, the three PBS tubes and three of the six DMSO tubes were centrifuged for 5 min at 4000 rpm and filtered over 0.45 μm filters (Millex-LH Millipore). Then, 40 μL of each solution was diluted in 160 μL of MeCN and 40 µL of Milli-Q water and transferred to matrix tubes for the LC–MS/MS analysis. The solubility was determined according to the following formula: Solubility (μM) = (AUC (filtered PBS)/AUC (not filtered DMSO)) × 200. The test was validated if (AUC (not filtered DMSO) − AUC (filtered DMSO))/AUC (not filtered DMSO) ≤ 10%.

M. tuberculosis strains = system: M. tuberculosis strains; set-up: method as in PMID 9747541; conditions: cited from earlier work
BALB/3T3 cells = assay: Cytotoxicity by live imaging (Hoechst 33342 / propidium iodide); type: cell-based; conditions: BALB/3T3 cells; 0, 12.5, 25, 50, 100 µM; imaging at 24 h and 48 h; read-out: Cytotoxicity Balb3T3 CC50
Method: as §1

[5] = Mycobacterium tuberculosis, H37RV, 168 h
[6] = 21 °C, pH 7.4, aqueous buffer, kinetic from dmso stock

With C=C1C(=O)O[C@H]2[C@H]1CC/C(C)=C/CC[C@@]1(C)O[C@@H]21 [Compound 1, Parthenolide] the MIC90 (M. tuberculosis H37Rv; [5]) was 9.4 to 19 µM (≈ 2.33 to 4.72 µg/mL), the MIC [1] was 9.4 to 19 µM (≈ 2.33 to 4.72 µg/mL) and the MIC90 ([2]; Staphylococcus aureus) was > 300 µM. The CC50 [3] was > 100 µM, the solubility at 24 h [4, 6] was 135 µM (≈ 33.5 µg/mL) and the “minimum inhibitory concentration (MIC) against M. tuberculosis strains” value (M. tuberculosis strains) was 16 µg/mL (≈ 64.4 µM).
In the case of C=CCOC(=O)N(O)[C@@H]1CC[C@@]2(C)O[C@H]2[C@H]2OC(=O)C(=C)[C@@H]2CCC1=C [Compound 13, Allyl-N-hydroxy-N-[(1S,2S,4R,7R,11S)-4-methyl-8,12-dimethylene-13-oxo-3,14-dioxatricyclo [9.3.0.02,4]tetradecan-7-yl]carbamate], the MIC90 (M. tuberculosis H37Rv; [5]) is reported as 38 to 75 µM (≈ 13.8 to 27.3 µg/mL), the MIC [1] is reported as 38 µM (≈ 13.8 µg/mL) and the MIC90 ([2]; Staphylococcus aureus) is reported as > 300 µM. For the same molecule, the CC50 [3] was > 12.5 µM and the solubility at 24 h [4, 6] was 192 µM (≈ 69.8 µg/mL).
With C=C1CC[C@H]2C(=C)C(=O)O[C@@H]2[C@@H]2O[C@]2(C)CC[C@H]1N(O)C(=O)OCc1ccccc1 [Compound 14, Benzyl-N-hydroxy-N-[(1S,2S,4R,7R,11S)-4-methyl-8,12-dimethylene-13-oxo-3,14-dioxatricyclo[9.3.0.02,4]tetradecan-7-yl]carbamate] the MIC90 (M. tuberculosis H37Rv; [5]) was 75 µM (≈ 31 µg/mL), the MIC [1] was 38 µM (≈ 15.7 µg/mL) and the MIC90 ([2]; Staphylococcus aureus) was > 300 µM. For the same molecule, the CC50 [3] was > 12.5 µM and the solubility at 24 h [4, 6] was 191 µM (≈ 79 µg/mL).
With C=C1CC[C@H]2C(=C)C(=O)O[C@@H]2[C@@H]2O[C@]2(C)CC[C@H]1N(O)C(=O)OCC(Cl)(Cl)Cl [Compound 15, 2,2,2-trichloroethyl-N-hydroxy-N-[(1S,2S,4R,7R,11S)-4-methyl-8,12-dimethylene-13-oxo-3,14-dioxatricyclo[9.3.0.02,4]tetradecan-7-yl]carbamate] the MIC90 (M. tuberculosis H37Rv; [5]) was 38 µM (≈ 17.3 µg/mL), the MIC [1] was 19 µM (≈ 8.64 µg/mL) and the MIC90 ([2]; Staphylococcus aureus) was > 300 µM. For the same molecule, the CC50 [3] was 12.5 µM and the solubility at 24 h [4, 6] was 184 µM (≈ 83.7 µg/mL).
In the case of C=C1CC[C@H]2C(=C)C(=O)O[C@@H]2[C@@H]2O[C@]2(C)CC[C@H]1N(O)C(=O)Oc1ccc(F)cc1 [Compound 16, (4-fluorophenyl)-N-hydroxy-N-[(1S,2S,4R,7R,11S)-4-methyl-8,12-dimethylene-13-oxo-3,14-dioxatricyclo[9.3.0.02,4]tetradecan-7-yl]carbamate], the MIC90 (M. tuberculosis H37Rv; [5]) is reported as 75 µM (≈ 31.3 µg/mL), the MIC [1] is reported as 38 to 75 µM (≈ 15.9 to 31.3 µg/mL) and the MIC90 ([2]; Staphylococcus aureus) is reported as > 300 µM. The CC50 ([3]; BALB/3T3 cells, 0, 12.5, 25, 50, 100 µM, imaging at 24 h and 48 h, read-out: Cytotoxicity Balb3T3 CC50) was 25 µM and the solubility at 24 h ([4]; aqueous buffer, kinetic from dmso stock, kinetic solubility, PBS pH 7.4, 24 h at 21 °C, from 10 mM DMSO solution diluted 50-fold, read-out: Solubility) was 182 µM (≈ 76 µg/mL).
In the case of “tert-butyl-N-hydroxy-N-[(1S,2S,4R,7R,11S)-4-methyl-8,12-dimethylene-13-oxo-3,14-dioxatricyclo[9.3.0.02,4]tetradecan-7-yl]carbamate [Compound 12]”, the MIC90 (M. tuberculosis H37Rv) is reported as 38 µM, the “MIC98 M. tuberculosis (GFP)” value [1] is reported as 19 to 38 µM and the MIC90 [2] is reported as >300 µM. For the same molecule, the CC50 (BALB/3T3 cells) was > 100 µM and the solubility at 24 h ([4]; kinetic solubility, PBS pH 7.4, 24 h at 21 °C, from 10 mM DMSO solution diluted 50-fold, read-out: Solubility) was 176 µM.
